Assay [1] relates to mouse colon cancer cell line C26. Nature of the assay: Drug efficacy test in C26 tumor-bearing nude mice. The class given is in vivo. The following applies: after 14 days from administration; tail vein, 3 times every other day; 8 mg/kg (3.9 mg/kg in terms of Pt). Here is the method:
A tumor-bearing model obtained by subcutaneously transplanting a mouse colon cancer cell line C26 (American Type Culture Collection) into a female nude mouse (BALB/c-nu/nu, 7 weeks old; Charles River Laboratories Japan, Inc.) was used for a drug efficacy test.
A mouse colon cancer cell line C26 subcultured in a CO2 incubator was suspended in a liquid medium (Dulbecco's Modified Eagle's Medium-high glucose, Sigma-Aldrich Co. LLC), and injected subcutaneously in the back of nude mice so that the number of cells per mouse was 1×10^6/100 μL. Thereafter, the nude mice were raised for about 1 week, and administration of a drug was started when the average value of the tumor volume had grown to about 30 mm^3. A DACHPt-encapsulating SCNP (DACHPt-encapsulating SCNP prepared using the copolymer of Example 70) was administered into the tail vein (3 times every other day), and the antitumor effect was evaluated based on the tumor volume (4 to 5 mice per 1 group). As a comparison, an oxaliplatin solution (Comparative Example 1) was used, and it was administered in the same manner. The dose of each preparation was 8 mg/kg (3.9 mg/kg in terms of Pt) as the maximum administrable dose for the oxaliplatin solution, and 3 mg/kg in terms of Pt for the DACHPt-encapsulating SCNP. […]

Assay [2] relates to CD20 antigen-negative human T-lymphoblastic leukemia-derived MOLT-4 cells. The assay is described as follows: Cytotoxic test (CellTiter-Glo), CD20 antigen-negative cells. Format: cell-based. The following applies: cultured 4 days, read-out: IC50(nmol/L) MOLT-4 (CD20 negative). As for the experimental part:
(§1) CD20 antigen-positive human B-cell lymphoma-derived Raji cells or CD20 antigen-negative human T-lymphoblastic leukemia-derived MOLT-4 cells were adjusted to a cell concentration of 5.0×10^4 cells/mL with the RPMI1640 medium, and 50 μL each was added to the 96-well microplate for cell culture, then cultured overnight. On the next day, 50 μL of the evaluation specimen diluted with the RPMI medium was separately added to the microplate, and the cells were cultured for 4 days at 37° C. under 5% CO2. After the culturing, CellTiter-Glo™ Luminescent Cell Viability Assay (Promega Corporation) was added to the microplate, and the mixture was stirred and left to stand at room temperature for 10 minutes. The light emission amount was then measured with a plate reader (Molecular Devices, LLC.). The cell viability and IC50 value were calculated.

For assay [3], the system named is CD20 antigen-positive human B-cell lymphoma-derived Raji cells. Nature of the assay: Cytotoxic test (CellTiter-Glo), CD20 antigen-positive cells. The following applies: high expression of CD20, cultured 4 days, read-out: IC50(nmol/L) Raji (High expression of CD20). Format: cell-based. Here is the method:
as §1
For orientation: Cellular ATP, detected with luciferase, serves as a proxy for viable cell number.

On to `O=C1[O][Pt]2([NH][C@@H]3CCCC[C@H]3[NH]2)[O]C1=O` [Comparative Example 1, oxaliplatin], for which, in assay [1], the “T/C (ratio of the tumor volume of the drug administration group to that of the control group)” value is on record as 1.1.
As to rituximab [Comparative Example 4], the IC50 in assay [2] and in assay [3] was greater than 69 nmol/L in each case.
